Reference: US10953012B2, “Heterocyclic compounds for the inhibition of pask” (BioEnergenix LLC, priority 2011, dated 2021)

Target: PASK (Homo sapiens (Human), UniProt Q96RG2)
Assay: PAS Kinase FRET Assay
Format: biochemical
Details: TR-FRET assay; read-out: IC50 Kinase Domain
From the text: The aim of the FRET assay is to determine the inhibition potential of test compounds on targeted kinase. This assay platform provides a homogenous screening method for measuring kinase activity by quantitating the amount of phospho-substrate in solution following a kinase reaction.
In the presence of kinase and ATP, the Ulight-peptide is phosphorylated and captured by an anti-phospho-substrate antibody, which brings the Eu chelate donor and Ulight acceptor dyes into close proximity. Upon excitation at 340 nm, the Eu chelate transfers its energy to the Ulight dye, resulting in a fluorescent light emission at 665 nm
Titration of kinase at 1 mM ATP was achieved via the following protocol. After making serial three-fold dilutions of PASK (Invitrogen) in reaction buffer across the plate; 5 μl of kinase dilution and 5 μl substrate/ATP mix were added to the wells of the white Optiplate-384 (PerkinElmer). The contents of the plate were and incubated at RT for 1 h. The reaction was stopped by adding 5 μl of stop solution to each test well followed by mixing and incubation at RT for 10 minutes. 5 μl of detection mix (detection antibody diluted in detection buffer) was added; the contents of the plate were mixed and then incubated in the dark for 1 hour at RT. The signal was recorded at TR-FRET mode (665 nm/615 nm). The results were graphed to calculate the EC50.
Titration of ATP at the EC50 concentration of kinase to determine ATP Km, app. was performed using the following method. After making serial dilutions of ATP (Invitrogen), 5 μl of ATP dilution and 5 μl substrate/kinase mix were added to the wells of the white Optiplate-384 (PerkinElmer). The contents of the plate were and incubated at RT for 1 h. The reaction was stopped by adding 5 μl of stop solution to each test well followed by mixing and incubation at RT for 10 minutes. 5 μl of detection mix (detection antibody diluted in detection buffer) was added; the contents of the plate were mixed and then incubated in the dark for 1 hour at RT. The signal was recorded at TR-FRET mode (665 nm/615 nm). The results were graphed to calculate the EC50 as the ATP Km, app.
Compound screening was done via the following method. 10 mM stock solution of test compound in DMSO was prepared by dissolving test compound in DMSO at RT for 1 hour, and then sonicating at 100% output for 8 minutes. If compound is not soluble under this condition, it was diluted to 3 mM. Kinase reaction buffer was prepared containing 10 mM MgCl2, 50 mM HEPES, 1 mM EGTA, 0.01% TWEEN-20, 2 mM DTT. Serial dilutions of the test compounds were prepared at 4×final assay concentrations using Freedom EVO200® dispensing system as follows: 12×10^−5 M, 4×10^−5 M, 1.33×10^−5 M, 4.44×10^−6 M, 1.48×10^−6 M, 4.92×10^−7 M, 1.65×10^−7 M, […], 1.82×10^−8M, 6.09×10^−9, 2.03×10^−9 M. Test compounds (2.5 μl at 4× the final assay concentration) was added to wells using Freedom EVO200® dispensing system. As a positive control, 2.5 μl of positive compound was added to assay wells, and 2.5 μl of DMSO to assay wells as vehicle control. Kinase solution was prepared in reaction buffer at 2×final assay concentration. Kinase solution (5 μl) was added to each well of the assay plate. The substrate and ATP solution was prepared in kinase reaction buffer at 4×final assay concentration. The kinase reaction was started by adding 2.5 μl of substrate+ATP mix solution to each well of the assay plate. The plate is mixed on a plate shaker; then covered and allowed to react for 2 hours in the dark at 25° C. without shaking. The reaction was stopped by adding 5 μl of stop solution to each test well followed by mixing and incubation at RT for 10 minutes in the dark. 5 μl of detection mix (detection antibody diluted in detection buffer) was added; the contents of the plate were mixed and then incubated in the dark for 1 hour at RT. The signal was recorded at TR-FRET mode (665 nm/615 nm).

Sequence of PASK (Q96RG2 999-1251): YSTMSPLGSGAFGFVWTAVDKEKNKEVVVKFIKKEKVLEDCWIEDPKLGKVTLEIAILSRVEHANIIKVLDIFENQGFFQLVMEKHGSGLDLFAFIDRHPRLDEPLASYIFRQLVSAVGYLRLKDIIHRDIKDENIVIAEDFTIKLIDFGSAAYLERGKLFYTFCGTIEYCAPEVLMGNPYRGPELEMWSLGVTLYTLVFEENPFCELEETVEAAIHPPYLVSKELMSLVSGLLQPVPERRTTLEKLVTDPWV

| SMILES | IC50 [µM] |
| --- | --- |
| CCc1nn2c(=O)cc(-c3ccc4[nH]nnc4c3)[nH]c2c1-c1ccccc1 [Example 206, 5-(1H-Benzo[d][1,2,3]triazol-5-yl)-2-ethyl-3-phenylpyrazolo[1,5-a]pyrimidin-7(4H)-one] | ≤ 10 |
| O=c1cc(-c2ccc3[nH]nnc3c2)[nH]c2c(Cc3ccccc3)cnn12 [Example 207, 5-(1H-Benzo[d][1,2,3]triazol-5-yl)-3-benzylpyrazolo[1,5-a]pyrimidin-7(4H)-one] | ≤ 10 |
| Nc1nn2c(=O)cc(-c3ccc4[nH]nnc4c3)[nH]c2c1Cc1ccccc1 [Example 208, 2-Amino-5-(1H-benzo[d][1,2,3]triazol-5-yl)-3-benzylpyrazolo[1,5-a]pyrimidin-7(4H)-one] | ≤ 10 |
| O=c1cc(-c2ccc3[nH]nnc3c2)[nH]c2c(Cc3ccccc3)c(O)nn12 [Example 209, 5-(1H-Benzo[d][1,2,3]triazol-5-yl)-3-benzyl-2-hydroxypyrazolo[1,5-a]pyrimidin-7(4H)-one] | ≤ 10 |
| O=c1cc(-c2ccc3c(c2)OCO3)[nH]c2c(Cc3ccccn3)cnn12 [Example 211, 5-(Benzo[d][1,3]dioxol-5-yl)-3-(pyridin-2-ylmethyl)-pyrazolo[1,5-a]pyrimidin-7(4H)-one] | ≤ 10 |
| Cc1nn2c(=O)cc(-c3ccc4[nH]nnc4c3)[nH]c2c1-c1ccccc1 [Example 212, 5-(1H-Benzo[d][1,2,3]triazol-5-yl)-2-methyl-3-phenylpyrazolo[1,5-a]pyrimidin-7(4H)-one] | ≤ 10 |
| O=c1cc(-c2ccc3[nH]nnc3c2)[nH]c2c(-c3ccccc3)c(O)nn12 [Example 215, 5-(1H-Benzo[d][1,2,3]triazol-5-yl)-2-hydroxy-3-phenylpyrazolo[1,5-a]pyrimidin-7(4H)-one] | ≤ 10 |
| Cc1nn2c(=O)cc(-c3ccc4[nH]nnc4c3)[nH]c2c1-c1ccc(Cl)cc1 [Example 216, 5-(1H-Benzo[d][1,2,3]triazol-5-yl)-3-(4-chlorophenyl)-2-methylpyrazolo[1,5-a]pyrimidin-7(4H)-one] | ≤ 10 |
| Cc1nn2c(=O)cc(-c3ccc4[nH]ncc4c3)[nH]c2c1-c1ccccn1 [Example 219, 5-(1H-Indazol-5-yl)-2-methyl-3-(pyridin-2-yl)pyrazolo[1,5-a]pyrimidin-7(4H)-one] | ≤ 10 |
| Cc1nn2c(=O)cc(-c3ccc4[nH]ncc4c3)[nH]c2c1-c1ccc(Cl)cc1 [Example 220, 3-(4-Chlorophenyl)-5-(1H-indazol-5-yl)-2-methylpyrazolo[1,5-a]pyrimidin-7(4H)-one] | ≤ 10 |
| Nc1nn2c(=O)cc(-c3ccc4[nH]ncc4c3)[nH]c2c1-c1ccc(Cl)cc1 [Example 221, 2-Amino-3-(4-chlorophenyl)-5-(1H-indazol-5-yl)pyrazolo[1,5-a]pyrimidin-7(4H)-one] | ≤ 10 |
| O=c1cc(-c2ccc3[nH]ncc3c2)[nH]c2c(-c3ccc(Cl)cc3)c(O)nn12 [Example 222, 3-(4-Chlorophenyl)-2-hydroxy-5-(1H-indazol-5-yl)pyrazolo[1,5-a]pyrimidin-7(4H)-one] | ≤ 10 |
| CCCNC(=O)c1c(N)nn2c(=O)cc(-c3ccc4c(c3)OCCO4)[nH]c12 [Example 226, 2-Amino-5-(2,3-dihydrobenzo[b][1,4]dioxin-6-yl)-7-oxo-N-propyl-4,7-dihydropyrazolo[1,5-a]pyrimidine-3-carboxamide] | ≤ 10 |
| CCCNC(=O)c1c(O)nn2c(=O)cc(-c3ccc4[nH]nnc4c3)[nH]c12 [Example 228, 5-(1H-Benzo[d][1,2,3]triazol-5-yl)-2-hydroxy-7-oxo-N-propyl-4,7-dihydropyrazolo[1,5-a]pyrimidine-3-carboxamide] | ≤ 10 |
| Cc1c(-c2cc(=O)n3ncc(-c4ccccn4)c3[nH]2)ccc2c1OCO2 [Example 229, 5-(4-Methylbenzo[d][1,3]dioxol-5-yl)-3-(pyridin-2-yl)pyrazolo[1,5-a]pyrimidin-7(4H)-one] | ≤ 10 |
| Cc1c(-c2cc(=O)n3nc(N)c(-c4ccccn4)c3[nH]2)ccc2c1OCO2 [Example 230, 2-Amino-5-(4-methylbenzo[d][1,3]dioxol-5-yl)-3-(pyridin-2-yl)pyrazolo[1,5-a]pyrimidin-7(4H)-one] | ≤ 10 |
| Cc1c(-c2cc(=O)n3nc(O)c(-c4ccccn4)c3[nH]2)ccc2c1OCO2 [Example 231, 2-Hydroxy-5-(4-methylbenzo[d][1,3]dioxol-5-yl)-3-(pyridin-2-yl)pyrazolo[1,5-a]pyrimidin-7(4H)-one] | ≤ 10 |
| Cc1nn2c(=O)cc(-c3ccc4c(c3C)OCO4)[nH]c2c1-c1ccccn1 [Example 232, 2-Methyl-5-(4-methylbenzo[d][1,3]dioxol-5-yl)-3-(pyridin-2-yl)pyrazolo[1,5-a]pyrimidin-7(4H)-one] | ≤ 10 |
| COc1c(-c2cc(=O)n3ncc(-c4ccccn4)c3[nH]2)ccc2c1OCO2 [Example 233, 5-(4-Methoxybenzo[d][1,3]dioxol-5-yl)-3-(pyridin-2-yl)pyrazolo[1,5-a]pyrimidin-7(4H)-one] | ≤ 10 |
| Cc1cc2[nH]nnc2cc1-c1cc(=O)n2ncc(-c3ccccn3)c2[nH]1 [Example 236, 5-(6-Methyl-1H-benzo[d][1,2,3]triazol-5-yl)-3-(pyridin-2-yl)pyrazolo[1,5-a]pyrimidin-7(4H)-one] | ≤ 10 |

Continued, values first:

| IC50 [µM] | SMILES |
| --- | --- |
| ≤ 10 | Cc1cc2[nH]nnc2cc1-c1cc(=O)n2nc(N)c(-c3ccccn3)c2[nH]1 [Example 238, 2-Amino-5-(6-methyl-1H-benzo[d][1,2,3]triazol-5-yl)-3-(pyridin-2-yl)pyrazolo[1,5-a]pyrimidin-7(4H)-one] |
| ≤ 10 | Cc1cc2[nH]nnc2cc1-c1cc(=O)n2nc(O)c(-c3ccccn3)c2[nH]1 [Example 239, 2-Hydroxy-5-(6-methyl-1H-benzo[d][1,2,3]triazol-5-yl)-3-(pyridin-2-yl)pyrazolo[1,5-a]pyrimidin-7(4H)-one] |
| ≤ 10 | Cc1c(-c2cc(=O)n3nc(N)c(-c4ccccn4)c3[nH]2)ccc2[nH]nnc12 [Example 240, 2-Amino-5-(4-methyl-1H-benzo[d][1,2,3]triazol-5-yl)-3-(pyridin-2-yl)pyrazolo[1,5-a]pyrimidin-7(4H)-one] |
| ≤ 10 | Cc1c(-c2cc(=O)n3nc(O)c(-c4ccccn4)c3[nH]2)ccc2[nH]nnc12 [Example 241, 2-Hydroxy-5-(4-methyl-1H-benzo[d][1,2,3]triazol-5-yl)-3-(pyridin-2-yl)pyrazolo[1,5-a]pyrimidin-7(4H)-one] |
| ≤ 10 | Cc1nn2c(=O)cc(-c3ccc4[nH]nnc4c3C)[nH]c2c1-c1ccccn1 [Example 242, 2-Methyl-5-(4-methyl-1H-benzo[d][1,2,3]triazol-5-yl)-3-(pyridin-2-yl)pyrazolo[1,5-a]pyrimidin-7(4H)-one] |
| ≤ 10 | COc1cc2[nH]nnc2cc1-c1cc(=O)n2nc(O)c(-c3ccccn3)c2[nH]1 [Example 244, 2-Hydroxy-5-(6-methoxy-1H-benzo[d][1,2,3]triazol-5-yl)-3-(pyridin-2-yl)pyrazolo[1,5-a]pyrimidin-7(4H)-one] |
| ≤ 10 | COc1c(-c2cc(=O)n3nc(N)c(-c4ccccn4)c3[nH]2)ccc2[nH]nnc12 [Example 246, 2-Amino-5-(4-methoxy-1H-benzo[d][1,2,3]triazol-5-yl)-3-(pyridin-2-yl)pyrazolo[1,5-a]pyrimidin-7(4H)-one] |
| ≤ 10 | COc1c(-c2cc(=O)n3nc(O)c(-c4ccccn4)c3[nH]2)ccc2[nH]nnc12 [Example 247, 2-Hydroxy-5-(4-methoxy-1H-benzo[d][1,2,3]triazol-5-yl)-3-(pyridin-2-yl)pyrazolo[1,5-a]pyrimidin-7(4H)-one] |
